Data from patent US11840686B2, “Modulation of prekallikrein (PKK) expression” (Ionis Pharmaceuticals, Inc., priority 2013, dated 2023).
Strand notation (5' to 3'): a small letter for the sugar, then the base; units joined by * are phosphorothioate-linked, units joined directly phosphodiester-linked; [ ] holds rarer units or linkages, { } end groups; capitals alone tell only the bases. e = 2'-O-(2-methoxyethyl) (MOE); [5mC] = 5-methylcytosine; d = 2'-deoxy (DNA)

Key:
human PKK mRNA [1] = assay: Antisense inhibition of human PKK mRNA in HepaRG cells, 5,000 nM (Example 2); type: cell-based
Procedure, shortened: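 Percent inhibition of PKK mRNA is relative to untreated control, with qRT-PCR (probe set RTS3454) values adjusted to total RNA by RIBOGREEN. Oligonucleotides, fully phosphorothioate 2′-MOE gapmers, were delivered at 5,000 nM by electroporation into 20,000 HepaRG cells/well for about 24 h.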

human PKK mRNA [2] = assay: Dose-dependent antisense inhibition of human PKK in HepaRG cells, 0.19-5.00 uM (Example 5); type: cell-based; settings: HepaRG cells; for percent inhibition of PKK at 0.19 μM / percent inhibition of PKK at 0.56 μM / percent inhibition of PKK at 1.67 μM / percent inhibition of PKK at 5.00 μM: electroporation, approximately 16 hours; for percent inhibition of PKK mRNA, 0.19 μM: 0.19 μM antisense oligonucleotide; for percent inhibition of PKK mRNA, 0.56 μM: 0.56 μM antisense oligonucleotide; for percent inhibition of PKK mRNA, 1.67 μM: 1.67 μM antisense oligonucleotide; for percent inhibition of PKK mRNA, 5.00 μM: 5.00 μM antisense oligonucleotide
Procedure, shortened: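 PKK mRNA knockdown was measured by real-time PCR (primer probe set RTS3454) about 16 h after electroporating 20,000 HepaRG cells per well with oligonucleotide at four doses from 0.19 to 5.00 μM. Levels were adjusted to RIBOGREEN-measured total RNA, and IC50 values were calculated.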

[3] = Table 13, human PKK mRNA in HepaRG cells, 5-10-5 gapmers
[4] = 4 point dose response, Table 37
[5] = 4 point dose response, Table 39
[6] = human PKK mRNA in HepaRG cells, 5-10-5 gapmers, Table 14
[7] = 4 point dose response, Table 35

546847 (eA*e[5mC]*eT*eG*eT*d[5mC]*d[5mC]*dT*dA*dT*dA*dT*d[5mC]*dA*d[5mC]*eT*eG*eT*e[5mC]*e[5mC]; antisense) [compound 546847]
% inhibition (human PKK mRNA [1]; [3]): 88% | percent inhibition of PKK at 0.19 μM (human PKK mRNA [2]; Table 37): 39% | percent inhibition of PKK at 0.56 μM (human PKK mRNA [2]; Table 37): 57% | percent inhibition of PKK at 1.67 μM (human PKK mRNA [2]; Table 37): 75% | percent inhibition of PKK at 5.00 μM (human PKK mRNA [2]; Table 37): 89% | IC50 (human PKK mRNA [2]; [4]): 400 nM | percent inhibition of PKK mRNA, 0.19 μM (human PKK mRNA [2]): 14% | percent inhibition of PKK mRNA, 0.56 μM (human PKK mRNA [2]): 44% | percent inhibition of PKK mRNA, 1.67 μM (human PKK mRNA [2]): 83% | percent inhibition of PKK mRNA, 5.00 μM (human PKK mRNA [2]): 95% | IC50 (human PKK mRNA [2]; 0.19-5.00 μM): 700 nM

546848 (eT*e[5mC]*eA*e[5mC]*eT*dG*dT*d[5mC]*d[5mC]*dT*dA*dT*dA*dT*d[5mC]*eA*e[5mC]*eT*eG*eT; antisense) [compound 546848]
% inhibition (human PKK mRNA [1]; [3]): 86% | percent inhibition of PKK at 0.19 μM (human PKK mRNA [2]; Table 39): 0% | percent inhibition of PKK at 0.56 μM (human PKK mRNA [2]; Table 39): 18% | percent inhibition of PKK at 1.67 μM (human PKK mRNA [2]; Table 39): 91% | percent inhibition of PKK at 5.00 μM (human PKK mRNA [2]; Table 39): 97% | IC50 (human PKK mRNA [2]; [5]): 1000 nM

546849 (eA*eT*e[5mC]*eA*e[5mC]*dT*dG*dT*d[5mC]*d[5mC]*dT*dA*dT*dA*dT*e[5mC]*eA*e[5mC]*eT*eG; antisense) [compound 546849]
% inhibition (human PKK mRNA [1]; [6]): 93% | percent inhibition of PKK at 0.19 μM (human PKK mRNA [2]; Table 35): 23% | percent inhibition of PKK at 0.56 μM (human PKK mRNA [2]; Table 35): 35% | percent inhibition of PKK at 1.67 μM (human PKK mRNA [2]; Table 35): 83% | percent inhibition of PKK at 5.00 μM (human PKK mRNA [2]; Table 35): 91% | IC50 (human PKK mRNA [2]; [7]): 700 nM | percent inhibition of PKK mRNA, 0.19 μM (human PKK mRNA [2]): 13% | percent inhibition of PKK mRNA, 0.56 μM (human PKK mRNA [2]): 45% | percent inhibition of PKK mRNA, 1.67 μM (human PKK mRNA [2]): 84% | percent inhibition of PKK mRNA, 5.00 μM (human PKK mRNA [2]): 98% | IC50 (human PKK mRNA [2]; 0.19-5.00 μM): 700 nM

546852 (e[5mC]*eA*eG*eT*eA*dT*d[5mC]*dA*d[5mC]*dT*dG*dT*d[5mC]*d[5mC]*dT*eA*eT*eA*eT*e[5mC]; antisense) [compound 546852]
% inhibition (human PKK mRNA [1]; [6]): 94% | percent inhibition of PKK at 0.19 μM (human PKK mRNA [2]; Table 35): 19% | percent inhibition of PKK at 0.56 μM (human PKK mRNA [2]; Table 35): 40% | percent inhibition of PKK at 1.67 μM (human PKK mRNA [2]; Table 35): 78% | percent inhibition of PKK at 5.00 μM (human PKK mRNA [2]; Table 35): 85% | IC50 (human PKK mRNA [2]; [7]): 800 nM

546853 (eA*e[5mC]*eA*eG*eT*dA*dT*d[5mC]*dA*d[5mC]*dT*dG*dT*d[5mC]*d[5mC]*eT*eA*eT*eA*eT; antisense) [compound 546853]
% inhibition (human PKK mRNA [1]; [6]): 86% | percent inhibition of PKK at 0.19 μM (human PKK mRNA [2]; Table 39): 47% | percent inhibition of PKK at 0.56 μM (human PKK mRNA [2]; Table 39): 64% | percent inhibition of PKK at 1.67 μM (human PKK mRNA [2]; Table 39): 84% | IC50 (human PKK mRNA [2]; [5]): 200 nM | percent inhibition of PKK mRNA, 0.19 μM (human PKK mRNA [2]): 4% | percent inhibition of PKK mRNA, 0.56 μM (human PKK mRNA [2]): 49% | percent inhibition of PKK mRNA, 1.67 μM (human PKK mRNA [2]): 74% | percent inhibition of PKK mRNA, 5.00 μM (human PKK mRNA [2]): 92% | IC50 (human PKK mRNA [2]; 0.19-5.00 μM): 800 nM

546854 (eT*eA*eA*e[5mC]*eA*dG*dT*dA*dT*d[5mC]*dA*d[5mC]*dT*dG*dT*e[5mC]*e[5mC]*eT*eA*eT; antisense) [compound 546854]
% inhibition (human PKK mRNA [1]; [6]): 90% | percent inhibition of PKK at 0.19 μM (human PKK mRNA [2]; Table 36): 23% | percent inhibition of PKK at 0.56 μM (human PKK mRNA [2]; Table 36): 39% | percent inhibition of PKK at 1.67 μM (human PKK mRNA [2]; Table 36): 83% | percent inhibition of PKK at 5.00 μM (human PKK mRNA [2]; Table 36): 94% | IC50 (human PKK mRNA [2]; 4 point dose response, Table 36): 600 nM

546855 (eA*eT*eA*eA*e[5mC]*dA*dG*dT*dA*dT*d[5mC]*dA*d[5mC]*dT*dG*eT*e[5mC]*e[5mC]*eT*eA; antisense) [compound 546855]
% inhibition (human PKK mRNA [1]; [6]): 87% | percent inhibition of PKK at 0.19 μM (human PKK mRNA [2]; Table 37): 18% | percent inhibition of PKK at 0.56 μM (human PKK mRNA [2]; Table 37): 7% | percent inhibition of PKK at 1.67 μM (human PKK mRNA [2]; Table 37): 30% | percent inhibition of PKK at 5.00 μM (human PKK mRNA [2]; Table 37): 82% | IC50 (human PKK mRNA [2]; [4]): 2200 nM

546870 (e[5mC]*eT*eG*eT*eA*d[5mC]*d[5mC]*dT*dA*dT*dA*dA*d[5mC]*dT*d[5mC]*eT*eA*eA*e[5mC]*eA; antisense) [compound 546870]
% inhibition (human PKK mRNA [1]; [6]): 87% | percent inhibition of PKK at 0.19 μM (human PKK mRNA [2]; Table 39): 35% | percent inhibition of PKK at 0.56 μM (human PKK mRNA [2]; Table 39): 42% | percent inhibition of PKK at 1.67 μM (human PKK mRNA [2]; Table 39): 80% | percent inhibition of PKK at 5.00 μM (human PKK mRNA [2]; Table 39): 95% | IC50 (human PKK mRNA [2]; [5]): 500 nM | percent inhibition of PKK mRNA, 0.19 μM (human PKK mRNA [2]): 36% | percent inhibition of PKK mRNA, 0.56 μM (human PKK mRNA [2]): 34% | percent inhibition of PKK mRNA, 1.67 μM (human PKK mRNA [2]): 61% | percent inhibition of PKK mRNA, 5.00 μM (human PKK mRNA [2]): 91% | IC50 (human PKK mRNA [2]; 0.19-5.00 μM): 1000 nM

546872 (e[5mC]*eA*e[5mC]*eT*eG*dT*dA*d[5mC]*d[5mC]*dT*dA*dT*dA*dA*d[5mC]*eT*e[5mC]*eT*eA*eA; antisense) [compound 546872]
% inhibition (human PKK mRNA [1]; [6]): 87% | percent inhibition of PKK at 0.19 μM (human PKK mRNA [2]; Table 39): 32% | percent inhibition of PKK at 0.56 μM (human PKK mRNA [2]; Table 39): 33% | percent inhibition of PKK at 1.67 μM (human PKK mRNA [2]; Table 39): 82% | percent inhibition of PKK at 5.00 μM (human PKK mRNA [2]; Table 39): 94% | IC50 (human PKK mRNA [2]; [5]): 400 nM | percent inhibition of PKK mRNA, 0.19 μM (human PKK mRNA [2]): 42% | percent inhibition of PKK mRNA, 0.56 μM (human PKK mRNA [2]): 13% | percent inhibition of PKK mRNA, 1.67 μM (human PKK mRNA [2]): 59% | percent inhibition of PKK mRNA, 5.00 μM (human PKK mRNA [2]): 99% | IC50 (human PKK mRNA [2]; 0.19-5.00 μM): 1400 nM

546876 (eG*eT*e[5mC]*e[5mC]*eT*dA*dT*dA*dT*d[5mC]*dA*d[5mC]*dT*dG*dT*eA*e[5mC]*e[5mC]*eT*eG; antisense) [compound 546876]
% inhibition (human PKK mRNA [1]; [6]): 87% | percent inhibition of PKK at 0.19 μM (human PKK mRNA [2]; Table 39): 0% | percent inhibition of PKK at 0.56 μM (human PKK mRNA [2]; Table 39): 50% | percent inhibition of PKK at 1.67 μM (human PKK mRNA [2]; Table 39): 85% | percent inhibition of PKK at 5.00 μM (human PKK mRNA [2]; Table 39): 95% | IC50 (human PKK mRNA [2]; [5]): 800 nM

546877 (e[5mC]*eA*e[5mC]*eT*eG*dT*d[5mC]*d[5mC]*dT*dA*dT*dA*dT*d[5mC]*dA*e[5mC]*eT*eG*eT*eA; antisense) [compound 546877]
% inhibition (human PKK mRNA [1]; [6]): 88% | percent inhibition of PKK at 0.19 μM (human PKK mRNA [2]; Table 37): 0% | percent inhibition of PKK at 0.56 μM (human PKK mRNA [2]; Table 37): 19% | percent inhibition of PKK at 1.67 μM (human PKK mRNA [2]; Table 37): 75% | percent inhibition of PKK at 5.00 μM (human PKK mRNA [2]; Table 37): 80% | IC50 (human PKK mRNA [2]; [4]): 1300 nM

546889 (eG*eT*e[5mC]*e[5mC]*eT*dA*dT*dG*dT*d[5mC]*dA*d[5mC]*dT*dG*dT*eA*e[5mC]*e[5mC]*eT*eA; antisense) [compound 546889]
% inhibition (human PKK mRNA [1]; human PKK mRNA, HepaRG cells, 5-10-5 motif oligonucleotides targeting SEQ ID NO: 1 and 10): 93% | percent inhibition of PKK at 0.19 μM (human PKK mRNA [2]; Table 35): 23% | percent inhibition of PKK at 0.56 μM (human PKK mRNA [2]; Table 35): 54% | percent inhibition of PKK at 1.67 μM (human PKK mRNA [2]; Table 35): 78% | percent inhibition of PKK at 5.00 μM (human PKK mRNA [2]; Table 35): 91% | IC50 (human PKK mRNA [2]; [7]): 600 nM | percent inhibition of PKK mRNA, 0.19 μM (human PKK mRNA [2]): 25% | percent inhibition of PKK mRNA, 0.56 μM (human PKK mRNA [2]): 9% | percent inhibition of PKK mRNA, 1.67 μM (human PKK mRNA [2]): 73% | percent inhibition of PKK mRNA, 5.00 μM (human PKK mRNA [2]): 92% | IC50 (human PKK mRNA [2]; 0.19-5.00 μM): 1400 nM
